According to the NIST ThermoML archive (doi:10.1021/je034102r):

Experiment: molar heat capacity at constant pressure
Conditions: 101.33 kPa, Liquid, heat bridge-scanning calorimeter

CCCCn1cc[n+](C)c1.F[P-](F)(F)(F)(F)F [1-butyl-3-methylimidazolium hexafluorophosphate]
Conditions	molar heat capacity at constant pressure [J/K/mol]
300.05 K	409.22
300.17 K	409.79
300.3 K	410.08
300.43 K	410.08
300.55 K	410.36
300.81 K	410.36
300.94 K	410.36
301.07 K	410.64
301.19 K	410.93
301.32 K	410.93
301.45 K	411.21
301.57 K	410.93
301.7 K	411.5
301.83 K	411.5
301.95 K	411.5
302.08 K	411.78
302.35 K	412.06
302.48 K	412.06
302.61 K	412.06
302.73 K	412.35
302.86 K	412.35
302.99 K	412.35
303.12 K	412.35
303.24 K	412.92
303.37 K	412.92
303.63 K	413.2
303.75 K	413.2
303.89 K	413.2
304.02 K	413.2
304.15 K	413.2
304.27 K	413.2
304.4 K	413.49
304.53 K	413.49
304.66 K	413.77
304.78 K	414.05
304.91 K	414.05
305.19 K	414.34
305.31 K	414.34
305.44 K	414.34
305.57 K	414.62
305.7 K	414.91
305.82 K	414.62
305.95 K	414.91
306.08 K	415.19
306.2 K	415.19
306.46 K	415.19
306.59 K	415.19
306.72 K	415.47
306.84 K	415.47
306.97 K	415.47
307.1 K	415.76
307.22 K	415.76
307.35 K	416.33
307.48 K	415.76
307.61 K	416.04
307.73 K	416.04
308.01 K	416.04
308.13 K	416.61
308.26 K	416.33
308.39 K	416.61
308.51 K	416.61
308.64 K	416.9
308.77 K	416.61
308.89 K	416.61
309.02 K	416.9
309.28 K	416.9
309.41 K	417.18
309.53 K	417.46
309.66 K	417.46
309.8 K	417.46
309.93 K	417.46
310.05 K	417.46
310.18 K	417.46
310.31 K	417.75
310.44 K	417.75
310.56 K	418.03
310.84 K	418.32
310.97 K	418.32
311.09 K	418.32
311.22 K	418.32
311.35 K	418.6
311.47 K	418.32
311.6 K	418.6
311.73 K	418.6
311.86 K	418.32
312.11 K	418.6
312.24 K	418.6
312.37 K	418.88
312.49 K	418.88
312.62 K	419.17
312.75 K	419.17
312.87 K	419.45
313 K	419.45
313.13 K	419.45
313.25 K	419.45
313.38 K	419.74
313.65 K	420.02
313.78 K	420.02
313.91 K	420.02
314.04 K	420.02
314.16 K	420.02
314.29 K	420.02
314.42 K	420.31
314.54 K	420.59
314.67 K	420.59
314.93 K	420.59
315.05 K	420.59
315.18 K	420.87
315.31 K	420.87
315.43 K	420.87
315.56 K	420.87
315.7 K	420.87
315.82 K	420.87
315.95 K	421.16
316.08 K	420.87
316.2 K	421.16
316.48 K	421.16
316.6 K	421.44
316.73 K	421.73
316.86 K	421.73
316.98 K	421.73
317.11 K	421.73
317.24 K	421.73
317.36 K	421.73
317.49 K	421.44
317.75 K	422.01
317.88 K	422.01
318 K	422.29
318.13 K	422.29
318.26 K	422.58
318.38 K	422.58
318.51 K	422.58
318.64 K	422.58
318.76 K	422.86
318.89 K	422.58
319.02 K	423.15
319.29 K	422.86
319.42 K	422.86
319.54 K	422.86
319.67 K	422.86
319.8 K	422.86
319.92 K	422.86
320.05 K	423.15
320.18 K	423.15
320.3 K	423.15
320.56 K	423.43
320.69 K	423.43
320.81 K	423.72
320.94 K	423.72
321.06 K	423.72
321.19 K	424
321.32 K	424
321.44 K	424
321.57 K	424
321.71 K	424
321.83 K	424.28
322.11 K	424.28
322.23 K	424.28
322.36 K	424
322.49 K	424
322.61 K	424
322.74 K	424.28
322.87 K	424.28
322.99 K	424.57
323.12 K	424.57
323.38 K	424.57
323.5 K	424.57
323.63 K	424.85
323.76 K	424.85
323.88 K	424.85
324.01 K	425.14
324.14 K	425.14
324.26 K	425.14
324.39 K	425.42
324.51 K	425.42
324.64 K	425.42
324.91 K	425.71
325.04 K	425.71
325.17 K	425.71
325.29 K	425.71
325.42 K	425.71
325.54 K	425.99
325.67 K	425.71
325.8 K	425.99
325.92 K	426.27
326.18 K	426.27
326.31 K	426.27
326.43 K	426.27
326.56 K	426.56
326.68 K	426.56
326.81 K	426.27
326.94 K	426.56
327.06 K	426.56
327.19 K	426.56
327.31 K	426.56
327.44 K	426.84
327.72 K	427.13
327.85 K	427.13
327.98 K	427.13
328.1 K	427.13
328.23 K	427.41
328.35 K	427.41
328.48 K	427.41
328.61 K	427.41
328.73 K	427.41
328.99 K	427.69
329.11 K	427.69
329.24 K	427.98
329.37 K	427.69
329.49 K	427.98
329.62 K	427.98
329.74 K	428.26
329.87 K	428.26
330 K	428.26
330.12 K	427.98
330.25 K	428.26
330.52 K	428.55
330.65 K	428.55
330.77 K	428.55
330.9 K	428.55
331.03 K	428.55
331.15 K	428.55
331.28 K	428.83
331.4 K	429.12
331.53 K	429.12
331.79 K	429.12
331.91 K	429.12
332.04 K	429.12
332.16 K	429.12
332.29 K	429.12
332.42 K	429.4
332.54 K	429.4
332.67 K	429.4
332.79 K	429.4
332.92 K	429.4
333.05 K	429.4
333.32 K	429.68
333.45 K	429.68
333.58 K	429.97
333.71 K	429.97
333.83 K	429.97
333.96 K	429.97
334.08 K	429.97
334.21 K	429.97
334.34 K	429.97
334.59 K	430.25
334.72 K	430.25
334.84 K	430.25
334.97 K	430.25
335.1 K	430.54
335.22 K	430.54
335.35 K	430.54
335.47 K	430.54
335.6 K	430.82
335.73 K	430.82
335.85 K	430.82
336.12 K	431.1
336.25 K	430.82
336.38 K	430.82
336.5 K	431.1
336.63 K	431.1
336.75 K	431.1
336.88 K	431.39
337.01 K	431.39
337.13 K	431.39
337.39 K	431.39
337.51 K	431.39
337.64 K	431.39
337.76 K	431.39
337.89 K	431.67
338.02 K	431.67
338.14 K	431.96
338.27 K	431.96
338.39 K	431.96
338.52 K	432.24
338.64 K	432.24
338.91 K	432.24
339.04 K	432.53
339.17 K	432.53
339.29 K	432.53
339.43 K	432.81
339.55 K	432.81
339.68 K	432.81
339.8 K	432.81
339.93 K	433.09
340.19 K	433.09
340.31 K	433.38
340.44 K	433.38
340.56 K	433.38
340.69 K	433.38
340.82 K	433.66
340.94 K	433.66
341.07 K	433.66
341.19 K	433.66
341.32 K	433.95
341.45 K	433.95
341.72 K	434.23
341.85 K	434.23
341.97 K	434.23
342.1 K	434.23
342.22 K	434.23
342.35 K	434.51
342.48 K	434.51
342.6 K	434.51
342.73 K	434.51
343 K	434.8
343.13 K	434.8
343.25 K	434.8
343.38 K	435.08
343.51 K	435.08
343.63 K	435.08
343.76 K	435.37
343.88 K	435.37
344.01 K	435.37
344.13 K	435.37
344.26 K	435.65
344.53 K	435.94
344.66 K	435.65
344.78 K	435.94
344.91 K	435.94
345.03 K	435.94
345.16 K	435.94
345.29 K	436.22
345.42 K	436.5
345.55 K	436.22
345.82 K	436.79
345.95 K	436.5
346.07 K	437.07
346.2 K	436.79
346.32 K	437.07
346.45 K	437.07
346.57 K	437.07
346.7 K	437.07
346.82 K	437.36
346.95 K	437.36
347.08 K	437.64
347.35 K	437.36
347.47 K	437.64
347.6 K	437.64
347.72 K	437.64
347.85 K	437.93
347.97 K	437.93
348.1 K	437.93
348.22 K	437.93
348.35 K	438.21
348.63 K	438.21
348.76 K	438.21
348.88 K	438.49
349.01 K	438.21
349.13 K	438.49
349.26 K	438.49
349.38 K	438.78
349.51 K	438.78
349.63 K	438.78
349.76 K	438.78
349.88 K	439.06
350.19 K	439.35
350.32 K	439.35
350.44 K	439.35
350.57 K	439.35
350.69 K	439.63
350.82 K	439.63
350.94 K	439.63
351.07 K	439.63
351.21 K	439.35
351.49 K	439.91
351.61 K	439.63
351.74 K	439.91
351.86 K	440.2
351.99 K	440.2
352.11 K	440.2
352.24 K	440.2
352.36 K	440.48
352.49 K	440.48
352.61 K	440.48
352.74 K	440.77
353.01 K	440.77
353.13 K	440.77
353.26 K	441.05
353.38 K	441.05
353.51 K	441.34
353.64 K	441.34
